Source: patent publication US20250147039A1, “Compounds for complexation of rare earth elements and/or s-, p-, d- block metals, their coordination compounds, peptide conjugates, method of their preparation and use thereof” (USTAV ORGANICKE CHEMIE A BIOCHEMIE AV CR V.V.I., priority 2021, published 2025)

Columns and labels:
Format in all cases: physicochemical
[1] = Dissociation of chelates in aq. 6.0M HCl at 80° C. (acid decomplexation kinetic inertness) (Chart 17)
[2] = Dissociation of chelates in aq. 0.1M HCl at 80° C. (acid decomplexation kinetic inertness) (Chart 19)
[3] = Dissociation of chelates in aq. 1.0M HCl at 80° C. (acid decomplexation kinetic inertness) (Chart 18)
[4] = Dissociation of chelates in aq. 0.1M HCl at RT (acid decomplexation kinetic inertness) (Chart 20)

Structure (SMILES)	fraction of intact chelate ([1]; 1 month) [%]	fraction of intact chelate ([1]; 1 week) [%]	fraction of intact chelate ([1]; 1 hour) [%]	fraction of intact chelate ([1]; 1 day) [%]	fraction of intact chelate ([2]; 1 month) [%]	fraction of intact chelate ([2]; 1 week) [%]	fraction of intact chelate ([2]; 1 hour) [%]	fraction of intact chelate ([2]; 1 day) [%]	fraction of intact chelate ([3]; 1 month) [%]	fraction of intact chelate ([3]; 1 week) [%]	fraction of intact chelate ([3]; 1 hour) [%]	fraction of intact chelate ([3]; 1 day) [%]	fraction of intact chelate ([4]; 1 month) [%]	fraction of intact chelate ([4]; 1 week) [%]	fraction of intact chelate ([4]; 1 hour) [%]	fraction of intact chelate ([4]; 1 day) [%]
O=C1C[N@@]2CC[N@]3CC[N@@](CC[N@](CC2)Cc2cccc(n2)-c2cnnn2Cc2cc(-c4ccccc4)cc(n2)C3)CC(=O)[O][Yb][O]1 [TD602]	90	98	100	100	100	100	100	100	100	100	100	100	100	100	100	100
O=C1C[N@@]2CC[N@]3CC[N@@](CC[N@](CC2)Cc2cccc(n2)-c2cnnn2Cc2cc(-c4ccccc4)cc(n2)C3)CC(=O)[O][Ho][O]1 [TD648]	0	17	99	81	100	100	100	100	96	99	100	100	100	100	100	100
O=C([O-])CN1CCN2CCN(CC(=O)[O-])CCN(CC1)Cc1cccc(n1)-c1cnnn1Cc1cc(-c3ccccc3)cc(n1)C2.[Ca+2] [TD863]	0	0	0	0	0	0	0	0	0	0	0	0	0	0	39	0
O=C1C[N@@]2CC[N@]3CC[N@@](CC[N@](CC2)Cc2cccc(n2)-c2cn(nn2)Cc2cc(-c4ccccc4)cc(n2)C3)CC(=O)[O][Lu][O]1 [TD874]	0	0	0	0	0	0	0	0	0	0	0	0	0	14	99	68
O=C1C[N@@]2CC[N@]3CC[N@@](CC[N@](CC2)Cc2cccc(n2)-c2cn(nn2)Cc2cc(-c4ccccc4)cc(n2)C3)CC(=O)[O][Gd][O]1 [TD875]	0	0	0	0	0	0	0	0	0	0	0	0	0	6	98	58

Next, values leading:

fraction of intact chelate ([1]; 1 month) [%]	fraction of intact chelate ([1]; 1 week) [%]	fraction of intact chelate ([1]; 1 hour) [%]	fraction of intact chelate ([1]; 1 day) [%]	fraction of intact chelate ([2]; 1 month) [%]	fraction of intact chelate ([2]; 1 week) [%]	fraction of intact chelate ([2]; 1 hour) [%]	fraction of intact chelate ([2]; 1 day) [%]	fraction of intact chelate ([3]; 1 month) [%]	fraction of intact chelate ([3]; 1 week) [%]	fraction of intact chelate ([3]; 1 hour) [%]	fraction of intact chelate ([3]; 1 day) [%]	fraction of intact chelate ([4]; 1 month) [%]	fraction of intact chelate ([4]; 1 week) [%]	fraction of intact chelate ([4]; 1 hour) [%]	fraction of intact chelate ([4]; 1 day) [%]	Structure (SMILES)
69	92	100	99	100	100	100	100	100	100	100	100	100	100	100	100	O=C1C[N@@]2CC[N@]3CC[N@@](CC[N@](CC2)Cc2cccc(n2)-c2cnnn2Cc2cc(-c4ccccc4)cc(n2)C3)CC(=O)[O][Tm][O]1 [TD601]
0	7	98	69	100	100	100	100	92	98	100	100	100	100	100	100	O=C1C[N@@]2CC[N@]3CC[N@@](CC[N@](CC2)Cc2cccc(n2)-c2cnnn2Cc2cc(-c4ccccc4)cc(n2)C3)CC(=O)[O][Y][O]1 [TD649]
0	0	0	0	0	0	0	0	0	0	0	0	0	0	76	4	O=C1C[N@@]2CC[N@]3CC[N@@](CC[N@](CC2)Cc2cccc(n2)-c2cnnn2Cc2cc(-c4ccccc4)cc(n2)C3)CC(=O)[O][La][O]1 [TD651]
24	71	99	95	100	100	100	100	99	100	100	100	100	100	100	100	O=C1C[N@@]2CC[N@]3CC[N@@](CC[N@](CC2)Cc2cccc(n2)-c2cnnn2Cc2cc(-c4ccccc4)cc(n2)C3)CC(=O)[O][Er][O]1 [TD865]
0	0	95	25	100	100	100	100	87	96	100	99	100	100	100	100	O=C1C[N@@]2CC[N@]3CC[N@@](CC[N@](CC2)Cc2cccc(n2)-c2cnnn2Cc2cc(-c4ccccc4)cc(n2)C3)CC(=O)[O][Dy][O]1 [TD866]
0	0	0	0	1	35	99	86	0	0	62	0	96	99	100	100	O=C1C[N@@]2CC[N@]3CC[N@@](CC[N@](CC2)Cc2cccc(n2)-c2cnnn2Cc2cc(-c4ccccc4)cc(n2)C3)CC(=O)[O][Sm][O]1 [TD867]
0	0	0	0	0	0	76	0	0	0	0	0	2	54	99	90	O=C1C[N@@]2CC[N@]3CC[N@@](CC[N@](CC2)Cc2cccc(n2)-c2cnnn2Cc2cc(-c4ccccc4)cc(n2)C3)CC(=O)[O][Nd][O]1 [TD868]
0	0	0	0	0	0	0	0	0	0	0	0	0	0	95	37	O=C1C[N@@]2CC[N@]3CC[N@@](CC[N@](CC2)Cc2cccc(n2)-c2cnnn2Cc2cc(-c4ccccc4)cc(n2)C3)CC(=O)[O][Ce][O]1 [TD870]
